Reference: patent publication US6737397B1, “Control of cancer growth through the interaction of [MET5]-enkephalin and the zeta receptor” (The Penn State Research Foundation, priority 1996, dated 2004)
Values joined by “and” are separate entries in the source; they are usually repeats but may differ in a detail not shown here. Equal values may be shown once. Read-outs that look alike come from different tables or passages of the source. Marks after values point to notes of the source that are not given here.

Legend:
[1] = molecular target: T1, ζ-opioid receptor (Homo sapiens, UniProt Q9NZT2); assay: Effect of cations and guanyl nucleotides on [3H]-[Met5]-enkephalin binding to HT-29 nuclear homogenates; set-up: from tissue; host or cells: HT-29 human colon tumor xenografts grown in athymic nude mice; nuclear (P1) and other subcellular fractions; settings: 5, 100, 200, or 500 μM
T1 sequence (Q9NZT2 1-677): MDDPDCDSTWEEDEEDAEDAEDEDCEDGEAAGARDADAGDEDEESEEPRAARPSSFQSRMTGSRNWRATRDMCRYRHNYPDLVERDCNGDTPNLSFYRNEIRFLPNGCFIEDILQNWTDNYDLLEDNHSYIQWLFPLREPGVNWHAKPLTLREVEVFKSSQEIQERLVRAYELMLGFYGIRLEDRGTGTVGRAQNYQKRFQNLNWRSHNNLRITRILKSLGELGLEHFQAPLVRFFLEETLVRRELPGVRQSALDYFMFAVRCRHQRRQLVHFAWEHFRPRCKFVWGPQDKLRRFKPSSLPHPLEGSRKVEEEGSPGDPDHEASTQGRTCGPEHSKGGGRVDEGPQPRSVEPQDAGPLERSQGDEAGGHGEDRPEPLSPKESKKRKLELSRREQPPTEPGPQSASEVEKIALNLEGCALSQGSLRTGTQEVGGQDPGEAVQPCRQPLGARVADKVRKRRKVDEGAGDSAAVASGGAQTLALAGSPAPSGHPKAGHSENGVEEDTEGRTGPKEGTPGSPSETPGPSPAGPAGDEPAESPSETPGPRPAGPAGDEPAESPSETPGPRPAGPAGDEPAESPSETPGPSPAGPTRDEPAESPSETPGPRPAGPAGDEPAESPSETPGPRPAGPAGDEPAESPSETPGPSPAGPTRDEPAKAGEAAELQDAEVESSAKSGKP
From the text: Histograms represent the percent of specific binding±SE.

[2] = molecular target: T2, μ-opioid receptor (Homo sapiens, UniProt P35372); assay: [3H]DAMGO binding to HT-29 nuclear (P1) and membrane (P2) homogenates; settings: P2 fraction
T2 construct: from tissue; host or cells: HT-29 human colon tumor xenografts from nude mice; nuclear (P1) and membrane (P2) homogenates
T2 sequence (P35372 whole entry): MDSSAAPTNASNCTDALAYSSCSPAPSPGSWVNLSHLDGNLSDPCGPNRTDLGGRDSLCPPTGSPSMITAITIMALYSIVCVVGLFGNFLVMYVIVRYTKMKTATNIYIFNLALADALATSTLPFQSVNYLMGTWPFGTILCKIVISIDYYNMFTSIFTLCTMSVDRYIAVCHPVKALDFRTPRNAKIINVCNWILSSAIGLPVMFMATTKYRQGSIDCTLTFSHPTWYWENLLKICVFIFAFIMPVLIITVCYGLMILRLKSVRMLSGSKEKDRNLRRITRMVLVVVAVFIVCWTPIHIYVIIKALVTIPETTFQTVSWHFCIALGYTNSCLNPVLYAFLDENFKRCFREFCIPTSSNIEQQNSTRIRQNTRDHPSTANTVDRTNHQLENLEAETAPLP

[3] = molecular target: T1, ζ-opioid receptor; assay: Competition for binding of [3H][Met5]enkephalin (4.0 nM) in nuclear homogenates of HT-29 human colon tumors; set-up: from tissue; host or cells: HT-29 human colon tumor xenografts grown in athymic nude mice; nuclear (P1) and other subcellular fractions
[4] = system: HT-29 human colon cancer cells; assay: HT-29 human colon cancer xenografts in nude mice treated with OGF and/or naloxone
[5] = system: WiDr cells; assay: Growth assay (cell counts) of WiDr human colon cancer cells; assay type: cell-based; settings: 10^−6 M, 48 hr
Procedure: (§1) HT-29, WiDr, and COLO 205 cell lines were obtained from the American Type Culture Collection (Rockville, Md.). HT-29 cells were grown in McCoy's 5A media (modified), WiDr cells in Minimum Essential Media, and COLO 205 cells in RPMI 1640 media; all media contained 10% fetal calf serum, 2 mM […], 1.2% sodium bicarbonate and antibiotics (11 Units/ml penicillin, 10 μg/ml streptomycin, 10 μg/ml neomycin) in a humidified atmosphere of 7% CO2/93% air at 37° C. In some examples, cultures of HT-29 cells were maintained in McCoy's 5A media without fetal calf serum.
(§2) Cells were seeded at equivalent amounts into 75 cm^2 flasks or into 9.6 cm^2 wells (6-well plates, Falcon) and were counted 24 hr later to determine plating efficiency. Drugs or sterile water were added beginning 24 hr after seeding (=0 hours) and both media and drugs were changed daily. All drugs were prepared in sterile water and dilutions represent final concentrations of the compounds. At appropriate times, cells were harvested with 0.05% trypsin/0.53 mM EDTA, centrifuged, and counted with a hemacytometer at 200×. Cell viability was determined by trypan blue staining. At least 2 aliquots/flask or well were counted and 2 flasks or wells/time point/treatment group were sampled.
(§3) To examine the ubiquity of opioid activity with respect to colon cancer, two other colon cancer cell lines were investigated: COLO 205 and WiDr.

[6] = system: BxPC-3 human pancreatic tumor cells; assay: BxPC-3 human pancreatic tumor xenografts in nude mice treated with OGF; assay type: in vivo
Procedure: BxPC-3 human pancreatic cancer cells, purchased from the American Type Culture Collection (Rockville, Md.), were grown in RPMI media containing 10% fetal calf serum, penicillin (10 units/ml), and streptomycin (100 μg/ml) in an atmosphere of 93% air and 7% CO2 at 37° C. Cell viability was determined by the trypan blue exclusion test. Three-to-4-week-old male athymic nude mice, obtained from Charles River Laboratories (Wilmington, Mass.), were injected subcutaneously over the right shoulder with BxPC-3 cells (log phase) in a 0.5 ml suspension of RPMI media. The day of tumor cell inoculation was considered day 0. Mice were evaluated daily and the date that the tumor became ‘visible’ was recorded. Individual tumors were measured with vernier calipers every 2 days. Measurements of the largest perpendicular dimensions were recorded and tumor volume was calculated using the formula: length×width^2×0.5[25]. The time of ‘initial’ appearance of a tumor wag considered to be the day when tumor volume was 5 mm^3 of greater. All mice were euthanized and necropsied 30 days after tumor cell inoculation. Tumor tissues for receptor binding assays, radioimmunoassays, and immunocytochemistry were rapidly frozen in liquid nitrogen and stored at −70° C. until assayed.
Drug treatment was initiated on the day of tumor cell inoculation. […] Injections were administered in the right or left flank. Animals were weighed weekly and appropriate dosage adjustments made.
The latencies for visible and initial tumor appearance, as well as the appearance of a tumor volume measuring 62.5 mm^3 (when each perpendicular measurement was 5 mm), were recorded.
Latencies for visible and initial appearance as well as tumors ≧62.5 mm were analyzed using one way analysis of variance; subsequent comparisons were made with the Newman-Keuls tests. The number of mice with initial tumor appearance on selected days was expressed as a ratio of the total number of mice in the group, and comparisons of percentages were made with chi-square tests.

[7] = system: COLO 205 cells; assay: Growth assay (cell counts) of COLO 205 human colon cancer cells; assay type: cell-based; settings: 10^−6 M, 48 hr
Procedure: as §1, §2, §3

[8] = molecular target: T3, [Met5]-enkephalin receptor (Homo sapiens, UniProt Q9NZT2); assay: [3H]-[Met5]-enkephalin binding on HT-29 cells after 48 h exposure to OGF or NTX (receptor regulation)
T3 construct: endogenous in cells; host or cells: HT-29 human colon cancer cells, log phase, nuclear pellet (P1)
T3 sequence (Q9NZT2 1-677): T1 sequence (Q9NZT2 1-677)
Procedure: Log phase cells were incubated in 0.05% trypsin for at least 30 min with gentle agitation at 37° C. in order to reduce clumping of cells and facilitate isolation of cell nuclei. Preparations were homogenized (Polytron, setting 6, 2×10 sec) in a 1:20 (wt/vol) solution (=Tris/all) of cold 50 mM Tris HCl buffer with 0.1 mg/ml bacitracin, 1 μg/ml leupeptin, 60 nM thiorphan, 1 mM EGTA, and 0.6 mg/l PMSF, pH 7.4, at 4° C. […] Protein homogenates of P1 were diluted with Tris/all and incubated at room temperature (22° C.) for 20 min to remove endogenous opioid peptides.
The final volume of the incubation mixture was 1 ml. The incubation was terminated by rapid filtration through Whatman GF-B filters under vacuum pressure with a Brandel Cell Harvester. Filters were rinsed three times with 5 ml volumes of ice-cold 50 mM Tris buffer, dried at 60° C. for 1 hour, and counted in a 2:1 solution of Aquasol-toluene by liquid scintillation spectrometry (Beckman LS-2800). […] Duplicate tubes of homogenates were assayed for each-concentration utilized. Protein concentrations were determined by the BioRad method with gamma globulin as a standard.

[9] = molecular target: ζ opioid receptor (Homo sapiens, UniProt Q9NZT2)
Procedure: Receptor binding assays were performed according to procedures reported elsewhere [8] with some slight modifications. […] Six assays were performed to establish binding kinetics in control tumor tissue, whereas three independent assays were conducted on tumors from mice for comparison of OGF and control groups.
Receptor binding data were analyzed with a Lundon 1 (Saturation Isotherm Binding Analysis) computer program (Lundon Software, Chagrin Falls, Ohio) and Prism Software (San Diego, Calif.). Both analyses utilized non-linear least-squares regression. Saturation curves and Scatchard plots were computed directly by these programs.
Mean binding affinities and capacities for tumor tissue from animals in the OGF and control groups were compared using analysis of variance and Newman-Keuls tests.

[10] = system: HT-29 cells; assay: Growth assay (cell counts) of HT-29 human colon cancer cells in culture; assay type: cell-based
Procedure: In some examples, cultures of HT-29 cells were maintained in McCoy's 5A media without fetal calf serum.
as §2

[11] = molecular target: T1, ζ-opioid receptor; settings: nuclear preparation of cultured HT-29 cells
[12] = molecular target: T1, ζ-opioid receptor; settings: for Bmax, fmol/mg protein: subcellular fractionation, P1 nuclear fraction
[13] = molecular target: T1, ζ-opioid receptor
[14] = 5 mg/kg OGF three times daily s.c.

Nc1nc2c(ncn2C2OC(COP(=O)([O-])OP(=O)([O-])NP(=O)([O-])[O-])C(O)C2O)c(=O)[nH]1.[Li+].[Li+].[Li+].[Li+] (stereo not drawn) [GppNHp, guanylyl-imidodiphosphate (GppNHp) tetralithium salt]
effect on binding of [3H]-[Met5]-enkephalin [1]: not markedly reduced

C[C@@H](NC(=O)[C@@H](N)Cc1ccc(O)cc1)C(=O)NCC(=O)N(C)[C@@H](Cc1ccccc1)C(=O)NCCO [[3H]DAMGO]
Bmax, fmol/mg protein [2]: 20.9 ± 4.8 fmol/mg protein

[Met^5]-enkephalin
greater ability to displace [3H]-[Met5]-enkephalin than the next ranking compound [3]: 2.3 fold | Latency for measurable tumor appearance ([4]; 0.5 mg/kg daily): 28.0 ± 0.0 days | Latency for measurable tumor appearance, days, range ([4]; 0.5 mg/kg daily): (28) days | Latency for palpable tumor ([4]; 0.5 mg/kg daily): 18.6 ± 3.2 days | Latency for visible tumor ([4]; 0.5 mg/kg daily): 22.4 ± 2.6 days | No. of mice with tumors 21 days after inoculation ([4]; 0.5 mg/kg daily): 2/14† | No. of mice with tumors 50 days after inoculation ([4]; 0.5 mg/kg daily): 7/14* | Latency for measurable tumor appearance ([4]; 5 mg/kg daily): 22.2 ± 2.3 days | Latency for measurable tumor appearance, days, range ([4]; 5 mg/kg daily): (13-22) days | Latency for palpable tumor ([4]; 5 mg/kg daily): 19.2 ± 2.2 days | Latency for visible tumor ([4]; 5 mg/kg daily): 20.2 ± 2.2 days | No. of mice with tumors 21 days after inoculation ([4]; 5 mg/kg daily): 4/14† | No. of mice with tumors 50 days after inoculation ([4]; 5 mg/kg daily): 6/14† | Latency for measurable tumor appearance ([4]; 25 mg/kg daily): 24.0 ± 4.5 days | Latency for measurable tumor appearance, days, range ([4]; 25 mg/kg daily): (12-32) days | Latency for palpable tumor ([4]; 25 mg/kg daily): 22.0 ± 4.5 days | Latency for visible tumor ([4]; 25 mg/kg daily): 23.0 ± 4.5 days | No. of mice with tumors 21 days after inoculation ([4]; 25 mg/kg daily): 2/14† | No. of mice with tumors 50 days after inoculation ([4]; 25 mg/kg daily): 6/14† | animals with a tumor ([4]; 50 days after inoculation, 0.5, 5, or 25 mg/kg OGF): 36-50% | mice that never developed xenografts of colon cancer ([4]; all OGF doses, 7-wk experimental period): 57% | mice with a measurable tumor ([4]; by day 21, 0.5, 5, or 25 mg/kg OGF): 14-28% | dose-response of tumor incidence and delay in oncogenesis ([4]; mouse, in vivo): no distinct dose-response effect | fewer cells than control cultures [5]: 41% | Number of mice with tumors 7 days after tumor cell inoculation ([6]; 5 mg/kg OGF three times daily): 0/13* | Number of mice with tumors 14 days after tumor cell inoculation ([6]; 5 mg/kg OGF three times daily): 5/13* | Number of mice with tumors 15 days after tumor cell inoculation ([6]; 5 mg/kg OGF three times daily): 8/13* | Number of mice with tumors 22 days after tumor cell inoculation ([6]; 5 mg/kg OGF three times daily): 12/13 | Number of mice with tumors 30 days after tumor cell inoculation ([6]; 5 mg/kg OGF three times daily): 12/13 | interval from inoculation to initial tumor appearance longer than sterile water ([6]; 5 mg/kg OGF three times daily): 43% | latency until tumor reached 62.5 mm^3 longer than control group ([6]; 5 mg/kg OGF three times daily): ~41% | visible tumors developed later than controls ([6]; 5 mg/kg OGF three times daily): more than 3 days | Latency (days) for tumors of 62.5 mm^3 in size [6, 14]: 17.2 ± 1.1 days | Latency (days) for visible tumor [6, 14]: 12.7 ± 1.4 days | Latency (days) for initial tumor appearance ([6]; 5 mg/kg OGF three times daily s.c., listed as OGF): 15.2 days and 15.2 ± 1.2 days | animals without a neoplasia ([6]; day 15): ~40% | mice with a tumor measuring ≧5 mm^3 ([6]; fifteen days after tumor cell inoculation): less than 62% | mean tumor volumes versus control group ([6]; within the 30 days of the experiment): no significant differences | fewer cells than control cultures [7]: 58% | Bmax of [3H]-[Met5]-enkephalin ([8]; HT-29 cells after 48 h of exposure to the treatment): 18.6 ± 1.1 | Bmax reduced versus control cells ([8]; chronic exposure (48 h)): 50% | binding affinity versus control group ([9]; tumors from OGF-treated mice): did not differ | binding sites reduced from control levels ([9]; tumors from OGF-treated mice): 58% | Bmax, fmol/mg protein ([9]; tumors from mice treated with 5 mg/kg OGF three times daily): 24.6 ± 5.2 fmol/mg protein | cell number greater after removal than in cultures maintained with peptide [10]: more than 80% | cell number versus controls [10]: comparable to controls | decrease in cell number from control values [10]: 35% | effect on cell growth in serum-free media [10]: inhibitory effect on cell growth | more cells after removal than in cultures continuing to receive peptide [10]: 37% | reduction in number of colon cancer cells [10]: 41% and 56%

[^3H]-[Met^5]-enkephalin
binding capacity (Bmax) [11]: 43 fmol/mg protein | binding capacity (Bmax) ([9]; tumor tissue from control animals): 46.8±4.0 fmol/mg protein | mean binding capacity (Bmax) ([12]; P1 nuclear homogenates of HT-29 tumors, 150 min, 22° C., pH 7.4): 364.8±25.7 fmol/mg protein | Bmax, fmol/mg protein [12]: 256.0±12.6 fmol/mg protein | Bmax, fmol/mg protein ([12]; listed as [^3H][Met^5]enkephalin): 256.0 ± 12.6 fmol/mg protein | Bmax, fmol/mg protein ([13]; Patient 1, splenic flexure adenocarcinoma): 34.3 ± 9.0 fmol/mg protein | Bmax, fmol/mg protein ([13]; Patient 2, sigmoid adenocarcinoma): 32.7 ± 1.4 fmol/mg protein | mean binding capacity (Bmax) ([13]; data from both patients averaged): 33.5±4.1 fmol/mg protein
